The target in experiment [1] is T1, K-Ras G12S (Homo sapiens, UniProt P01116, G12S).
T1 construct: made in house; host or cells: E. coli (e.g., BL21 (DE3))
In words: HTRF assay of the K-Ras / SOS1 interaction. It is filed as biochemical. To be noted: IC50 (against K-Ras G12D) to IC50 (against K-Ras G12S). An outline of the steps:
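GST-K-Ras G12S with anti-GST-Eu donor and His-hSOS1 with anti-6His-XL665 acceptor in ~5 mM HEPES pH 7.4, ~150 mM NaCl, 1 mM DTT, 0.05% BSA, 0.0025% Igepal. Read after ~10 min or longer; IC50 from 665/620 nm ratio, duplicates at 10 µM down to 0.01 µM.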

Experiment [2] has as its system GP2D cells. In words: Cell proliferation assay (CellTiter-Glo), K-Ras G12D cells. It counts as cell-based. To be noted: read-out: Inhibition of GP2D Cells (IC50). How it is done: ASPC-1 (ATCC CRL-1682), Panc-10.05 (ATCC CRL-2547), A427, and GP2D (Sigma 95090714) cell lines comprise a G12D mutation and can be used to assess Ras cellular signaling in vitro, e.g., in response to the compounds herein. […] ASPC-1 culture medium is prepared with RPMI-1640 and 10% heat-inactivated FBS. Panc-10.05 culture medium is prepared with RPMI-1640, 10 Units/ml human recombinant insulin, and 10% FBS. A427 cell culture is prepared with RPMI-1640 and 10% heat-inactivated FBS. GP2D culture medium is prepared with DMEM with 2mM glutamine and 10% heat-inactivated FBS. A Cell Titer-Glo (CTG) luminescent based assay (Promega) is used to assess growth of the cells, as a measurement of the ability of the compounds herein to inhibit Ras signaling in the cells. The cells (e.g., 800 per well) are seeded in their respective culture medium in standard tissue culture-treated 384-well format plates (Falcon #08-772-116) or ultra-low attachment surface 384-well format plates (S-Bio # MS-9384UZ ). The day after plating, cells are treated with a dilution series (e.g., a 9 point 3-fold dilution series) of the compounds herein (e.g., approximately 40 µl final volume per well). Cell viability can be monitored (e.g., approximately 5 days later) according to the manufacturer's recommended instructions, where the CellTiter-Glo reagent is added (e.g., approximately 10 µl), vigorously mixed, covered, and placed on a plate shaker (e.g., approximately for 20 min) to ensure sufficient cell lysis prior to assessment of luminescent signal. The IC50 values are determined using the four parameter fit. The resulting IC50 value is a measurement of the ability of the compounds herein to reduce cell growth of Ras-driven cells (e.g., tumor cell lines) in vitro and/or in vivo.
On the technique in general: Cellular ATP, detected with luciferase, serves as a proxy for viable cell number.

Like-named read-outs stand apart in the source and are kept apart here.

T1 sequence (P01116 1-188 isoform P01116-2 G12S): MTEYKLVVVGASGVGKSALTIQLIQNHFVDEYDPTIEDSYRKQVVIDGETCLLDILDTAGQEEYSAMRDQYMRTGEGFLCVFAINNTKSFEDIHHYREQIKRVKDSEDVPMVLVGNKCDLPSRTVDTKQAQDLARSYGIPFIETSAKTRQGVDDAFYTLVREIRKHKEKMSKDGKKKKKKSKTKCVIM

As usually defined, the IC50 is the concentration at which inhibition is half-maximal. `Cc1cnn(C(=O)N2CCN(c3nc(OC[C@@]45CCCN4C[C@H](F)C5)nc4c(F)c(-c5ccc(F)c6sc(N)nc56)c(Cl)cc34)CC2)c1` [Compound A149, (4-(7-(2-amino-7-fluorobenzo[d]thiazol-4-yl)-6-chloro-8-fluoro-2-(((2R,7aS)-2-fluorotetrahydro-1H-pyrrolizin-7a(5H)-yl)methoxy)quinazolin-4-yl)piperazin-1-yl)(4-methyl-1H-pyrazol-1-yl)methanone]: the “Ratio of IC50 KRAS G12D vs. IC50 KRAS G12S” value (“Ratio” for short) in experiment [1] is reported as “A (A: indicates that the ratio of IC50 against KrasG12D vs. IC50 against KrasG12S is 1-fold or greater)”. The IC50 in experiment [2] (GP2D cells (K-Ras G12D)) lay within 1000 to 10000 nM.

For `N#Cc1nccn1C(=O)N1CC2CCC(C1)N2c1nc(OC[C@@]23CCCN2C[C@H](F)C3)nc2c(F)c(-c3ccc(F)c4sc(N)nc34)c(Cl)cc12` [Compound A238, 1-(8-(7-(2-amino-7-fluorobenzo[d]thiazol-4-yl)-6-chloro-8-fluoro-2-(((2R,7aS)-2-fluorotetrahydro-1H-pyrrolizin-7a(5H)-yl)methoxy)quinazolm-4-yl)-3,8-diazabicyclo[3.2. 1]octane-3-carbonyl)-1H-imidazole-2-carbonitrile], in experiment [1], the “Ratio” value was “A (A: indicates that the ratio of IC50 against KrasG12D vs. IC50 against KrasG12S is 1-fold or greater)”. Besides, the IC50 in experiment [2] (GP2D cells (K-Ras G12D)) is at most 1000 nM.

For `N#Cc1c(N)sc2c(F)ccc(-c3c(Cl)cc4c(O[C@H]5C[C@H]6CC[C@@H](C5)N6C(=O)n5cncn5)nc(OC[C@@]56CCCN5C[C@H](F)C6)nc4c3F)c12` [Compound A300, 4-(4-(((1R,3r,5S)-8-(1H-1,2,4-triazole-1-carbonyl)-8-azabicyclo[3.2.1]octan-3-yl)oxy)-6-chloro-8-fluoro-2-(((2R,7aS)-2-fluorotetrahydro-1H-pyrrolizin-7 a(5H)-yl)methoxy)quinazolin-7-yl)-2-amino-7-fluorobenzo[b]thiophene-3-carbonitrile], the “Ratio” value in experiment [1] is given as “A (A: indicates that the ratio of IC50 against KrasG12D vs. IC50 against KrasG12S is 1-fold or greater)”. In addition, in experiment [2] (GP2d), the IC50 was 1000 to 10000 nM.

With `Nc1nc2c(-c3c(Cl)cc4c(N5CCC6(CC5)CN(C(=O)n5cnc(F)c5)C6)nc(OC[C@@]56CCCN5C[C@H](F)C6)nc4c3F)ccc(F)c2s1` [Compound A303, (7-(7-(2-amino-7-fluorobenzo[d]thiazol-4-yl)-6-chloro-8-fluoro-2-(((2R,7aS)-2-fluorotetrahydro-1H-pyrrolizin-7a(5H)-yl)methoxy)quinazolin-4-yl)-2,7-diazaspiro[3.5]nonan-2-yl)(4-fluoro-1H-imidazol-1-yl)methanone], in experiment [1], the “Ratio” value is reported as “A (A: indicates that the ratio of IC50 against KrasG12D vs. IC50 against KrasG12S is 1-fold or greater)”. Also, the IC50 in experiment [2] (GP2D cells (K-Ras G12D)) is 1000 to 10000 nM.

Turning to `Nc1nc2c(-c3c(Cl)cc4c(NCCN5CCN(C(=O)n6cncn6)CC5)nc(OC[C@@]56CCCN5C[C@H](F)C6)nc4c3F)ccc(F)c2s1` [Compound A156, (4-(2-((7-(2-amino-7-fluorobenzo[d]thiazol-4-yl)-6-chloro-8-fluoro-2-(((2R,7aS)-2-fluorotetrahydro-1H-pyrrolizin-7a(5H)-yl)methoxy)quinazolin-4-yl)amino)ethyl)piperazin-1-yl)(1H-1,2,4-triazol-1-yl)methanone], the “Ratio” value in experiment [1] is reported as “A (A: indicates that the ratio of IC50 against KrasG12D vs. IC50 against KrasG12S is 1-fold or greater)”. The 50% inhibitory concentration (IC50) in experiment [2] (GP2D cells (K-Ras G12D)) is 1000 to 10000 nM.

`Nc1nc2c(-c3c(Cl)cc4c(NC5CCN(C(=O)n6cnc(F)c6)CC5)nc(OC[C@@]56CCCN5C[C@H](F)C6)nc4c3F)ccc(F)c2s1` [Compound A193, (4-((7-(2-amino-7-fluorobenzo[d]thiazol-4-yl)-6-chloro-8-fluoro-2-(((2R,7aS)-2-fluorotetrahydro-1H-pyrrolizin-7a(5H)-yl)methoxy)quinazolin-4-yl)amino)piperidin-1-yl)(4-fluoro-1H-imidazol-1-yl)methanone]: the “Ratio” value in experiment [1] is reported as “A (A: indicates that the ratio of IC50 against KrasG12D vs. IC50 against KrasG12S is 1-fold or greater)”. For the same compound, the IC50 in experiment [2] (GP2D cells (K-Ras G12D)) lay in the range of 1000 to 10000 nM.

For `Nc1nc2c(-c3c(Cl)cc4c(N5CCC6CN(C(=O)n7cncn7)CC6C5)nc(OC[C@@]56CCCN5C[C@H](F)C6)nc4c3F)ccc(F)c2s1` (stereo partly drawn) [Compound A294, (5-(7-(2-amino-7-fluorobenzo[d]thiazol-4-yl)-6-chloro-8-fluoro-2-(((2R,7aS)-2-fluorotetrahydro-1H-pyrrolizin-7a(5H)-yl)methoxy)quinazolin-4-yl)octahydro-2H-pyrrolo[3,4-c]pyridin-2-yl)(1H-1,2,4-triazol-1-yl)methanone], the “Ratio” value in experiment [1] was “A (A: indicates that the ratio of IC50 against KrasG12D vs. IC50 against KrasG12S is 1-fold or greater)”. Besides, the IC50 in experiment [2] (GP2D cells (K-Ras G12D)) was in the range of 1000 to 10000 nM.

For the compound `C[C@@H]1CN(C(=O)n2cncn2)[C@@H](C)CN1c1nc(OC[C@@]23CCCN2C[C@H](F)C3)nc2c(F)c(-c3ccc(F)c4sc(N)nc34)c(Cl)cc12` [Compound A244, ((2S,5R)-4-(7-(2-amino-7-fluorobenzo[d]thiazol-4-yl)-6-chloro-8-fluoro-2-(((2R,7aS)-2-fluorotetrahydro-1H-pyrrolizin-7a(5H)-yl)methoxy)quinazolin-4-yl)-2,5-dimethylpiperazin-1-yl)(1H-1,2,4-triazol-1-yl)methanone], the “Ratio” value in experiment [1] was “A (A: indicates that the ratio of IC50 against KrasG12D vs. IC50 against KrasG12S is 1-fold or greater)”. Further, the IC50 in experiment [2] (GP2D cells (K-Ras G12D)) is 1000 to 10000 nM.

With `Nc1nc2c(-c3c(Cl)cc4c(N5CC6(CN(C(=O)n7cncn7)C6)C5)nc(OC[C@@]56CCCN5C[C@H](F)C6)nc4c3F)ccc(F)c2s1` [Compound A264, (6-(7-(2-amino-7-fluorobenzo[d]thiazol-4-yl)-6-chloro-8-fluoro-2-(((2R,7aS)-2-fluorotetrahydro-1H-pyrrolizin-7a(5H)-yl)methoxy)quinazolm-4-yl)-2,6-diazaspiro[3.3]heptan-2-yl)(1H-1,2,4-triazol-1-yl)methanone], the “Ratio” value in experiment [1] is “A (A: indicates that the ratio of IC50 against KrasG12D vs. IC50 against KrasG12S is 1-fold or greater)”. The IC50 in experiment [2] (GP2D cells (K-Ras G12D)) is 1000 to 10000 nM.

For `Nc1nc2c(-c3c(Cl)cc4c(N5CC6CCC(C5)N6C(=O)Nc5cncnc5)nc(OC[C@@]56CCCN5C[C@H](F)C6)nc4c3F)ccc(F)c2s1` [Compound A124, 3-(7-(2-amino-7-fluorobenzo[d]thiazol-4-yl)-6-chloro-8-fluoro-2-(((2R,7aS)-2-fluorotetrahydro-1H-pyrrolizin-7a(5H)-yl)methoxy)quinazolin-4-yl)-N-(pyrimidin-5-yl)-3,8-diazabicyclo[3.2. 1]octane-8-carboxamide], in experiment [1], the “Ratio” value is recorded as “A (A: indicates that the ratio of IC50 against KrasG12D vs. IC50 against KrasG12S is 1-fold or greater)”. Also, the IC50 in experiment [2] (GP2d) was at most 1000 nM.

Regarding `C#Cc1c(F)ccc2cc(O)cc(-c3ccc4c(N5CC6CCC(C5)N6C(=O)n5cncn5)nc(OC[C@@]56CCCN5C[C@H](F)C6)nc4c3F)c12` [Compound A281, (3-(7-(8-ethynyl-7-fluoro-3-hydroxynaphthalen-1-yl)-8-fluoro-2-(((2R,7aS)-2-fluorotetrahydro-1H-pyrrolizin-7a(5H)-yl)methoxy)quinazolin-4-yl)-3,8-diazabicyclo[3.2.1]octan-8-yl)(1H-1,2,4-triazol-1-yl)methanone], the IC50 in experiment [2] (GP2D cells (K-Ras G12D)) was at most 1000 nM.

The values are drawn from patent EP4389751A1, “HETEROCYCLIC COMPOUNDS AND USES THEREOF” (Kumquat Biosciences Inc., priority 2021, dated 2024).
